The test system of series [1] is opportunistic microbial infections. Nature of the series: opportunistic microbial infections in canines treated with antimetabolites for lymphoma. Format: in vivo. The source says:
There is a wide commercial need for inexpensive small molecular weight immunoenhancing drugs to enhance the immune response of individuals treated with antimetabolite anti-cancer drugs, which are immunosuppressive. We are using as the preclinical prototype pet canines treated for lymphoma, one of the most common cancers of dogs as well as humans.

Series [2] in a line: estimated/extrapolated EGCg plasma concentration after oral daily dose. Format: in vivo, dogs. On the procedure:
Previous reports indicate in vivo therapeutic activity at a plasma concentration of 1 to 10 μM/L (Lambert & Yang, 2003). Swezey et. al (Swezey et al., 2003) studied the absorption, tissue distribution and elimination of 4-[^3H]-epigallocatechin gallate in beagle dogs and estimated that approximately 20% of the oral dose appears in plasma after one hour and a half life of approximately 8 h. Considering an underestimation of this value to be 50 μg/ml and the molecular weight of EGCg of […] a daily dose of 250 mg/kg/day would result in a plasma concentration of approximately 100 μM/L. The doses proposed herein would result in an extrapolated value of more than […] in plasma.

In series [3] the test system is doxorubicin resistance tumors. The conditions noted are these: animal model; cited from earlier work.
The conditions of series [4]: beagle dogs, cited from earlier work.

Results on 3 compounds are retold here after patent US20070082073A1, “Catechin Adjuvants” (UNIVERSITY OF SOUTH FLORIDA, priority 2005, published 2007).

Regarding `COc1cccc2c1C(=O)c1c(O)c3c(c(O)c1C2=O)C[C@@](O)(C(=O)CO)C[C@@H]3O[C@H]1C[C@H](N)[C@H](O)[C@H](C)O1` [adriamycin], the “incidence of opportunistic microbial infections” value in series [1] is reported as “increased incidence of opportunistic microbial infections”.
Consider `O=C(O[C@@H]1Cc2c(O)cc(O)cc2O[C@@H]1c1cc(O)c(O)c(O)c1)c1cc(O)c(O)c(O)c1` [EGCg, epigallocatechin gallate], for which, in series [2] (daily dose of 250 mg/kg/day), the plasma concentration result was “approximately 100 μM/L” and the “plasma value, considered an underestimation” value was 50 µg/mL. Also, in series [2] (the doses proposed herein (6-60 mg/kg/day EGCg, oral)), the “extrapolated value in plasma” value is on record as “more than 11 M/L”. For the same compound, the “effect on doxorubicin resistance tumors” value in series [3] is on record as “revert doxorubicin resistance tumors”.
In the case of `[3H]C1c2c(O)cc(O)cc2OC(c2cc(O)c(O)c(O)c2)C1OC(=O)c1cc(O)c(O)c(O)c1` (stereo not shown) [4-[^3H]-epigallocatechin gallate], the “oral dose that appears in plasma” value in series [4] (after one hour) is recorded as “approximately 20%”. In series [4] (oral dose), the half life result was “approximately 8 h”.
